Assay results reported in patent EP4603477A1, “INHIBITORS OF THE CORONAVIRUS ACCESSORY PROTEIN ORF9B” (Consejo Superior De Investigaciones Científicas, priority 2024, dated 2025).

System: THP-1 cells stably integrating and constitutively expressing ORF9b
Assay: Cytokine quantification (Procartaplex multiplex) in THP-1 cells expressing ORF9b
Type: cell-based
Conditions: 1 µM or 5 µM
Protocol: THP-1 cells stably integrating and constitutively expressing ORF9b were generated as described under "Biochemical and biological activity (2)". Cytokines (IL-1β, IL-18, IL-10, TNF-α) were quantified by means of Procartaplex multiplex assays (InVitrogen, ThermoFisher), following instructions by the supplier. Briefly, capture beads were incubated for 2 h with cleared cell supernatants, washed and incubated with biotinylated detection antibody mix, incubated for 30 min, washed and incubated with Streptavidin-PE for 30 min, washed and data acquired on a Luminex 200 instrument. To ascertain the effect of ORF9b homodimerization inhibitors on ORF9b-mediated cytokine secretion, THP1-1 cells with the above modifications were treated with 1 µM or 5 µM of each of the compounds (final concentrations in cell culture media), and cytokine levels determined in cell culture supernatants. All determinations were performed in triplicate, and analyzed statistically significance in differences by means of a two-tailed Student's t-test. Inhibition of ORF9b-mediated secretion of cytokines was considered significant with p values ≤ 0.05.

SMILES | ORF9b-induced release of IL-1β | ORF9b-induced release of IL-10 | ORF9b-induced release of IL-18 | ORF9b-induced release of TNF-α
Nc1ccc(F)c(NC(=O)Cc2ccccc2)c1 [Compound 1] | inhibited | inhibited | inhibited | 
Nc1ccc(F)c(NC(=O)c2cccc3ccccc23)c1 [Compound 2, N-(5-Amino-2-fluorophenyl)-1-naphthamide] | inhibited | inhibited | inhibited | 
O=C(Cc1ccc(Cl)cc1)Nc1cc([N+](=O)[O-])ccc1F [Compound 6, 2-(4-Chlorophenyl)-N-(2-fluoro-5-nitrophenyl)acetamide] | inhibited | inhibited | inhibited | 
CC(C)(O)c1coc(S(=O)(=O)NC(=O)Nc2c3c(cc4c2CCC4)CCC3)c1 [MCC950, reference compound] | abrogated | abrogated | abrogated | abrogated
